Like-named read-outs stand apart in the source and are kept apart here.
Key:
Assay type in all cases: cell-based
human TLR8 = molecular target: T1, human TLR8 (Homo sapiens, UniProt Q9NR97); assay: TLR8 inhibition reporter assay (HEK-Blue cells, secreted embryonic alkaline phosphatase reporter); settings: HEK-Blue cells overexpressing human TLR8, stimulated with R848 15.9 μM; read-out: TLR 8 IC50
T1 construct: host or cells: HEK-Blue cells (HEK293-derived reporter line)
T1 sequence (Q9NR97 27-1041): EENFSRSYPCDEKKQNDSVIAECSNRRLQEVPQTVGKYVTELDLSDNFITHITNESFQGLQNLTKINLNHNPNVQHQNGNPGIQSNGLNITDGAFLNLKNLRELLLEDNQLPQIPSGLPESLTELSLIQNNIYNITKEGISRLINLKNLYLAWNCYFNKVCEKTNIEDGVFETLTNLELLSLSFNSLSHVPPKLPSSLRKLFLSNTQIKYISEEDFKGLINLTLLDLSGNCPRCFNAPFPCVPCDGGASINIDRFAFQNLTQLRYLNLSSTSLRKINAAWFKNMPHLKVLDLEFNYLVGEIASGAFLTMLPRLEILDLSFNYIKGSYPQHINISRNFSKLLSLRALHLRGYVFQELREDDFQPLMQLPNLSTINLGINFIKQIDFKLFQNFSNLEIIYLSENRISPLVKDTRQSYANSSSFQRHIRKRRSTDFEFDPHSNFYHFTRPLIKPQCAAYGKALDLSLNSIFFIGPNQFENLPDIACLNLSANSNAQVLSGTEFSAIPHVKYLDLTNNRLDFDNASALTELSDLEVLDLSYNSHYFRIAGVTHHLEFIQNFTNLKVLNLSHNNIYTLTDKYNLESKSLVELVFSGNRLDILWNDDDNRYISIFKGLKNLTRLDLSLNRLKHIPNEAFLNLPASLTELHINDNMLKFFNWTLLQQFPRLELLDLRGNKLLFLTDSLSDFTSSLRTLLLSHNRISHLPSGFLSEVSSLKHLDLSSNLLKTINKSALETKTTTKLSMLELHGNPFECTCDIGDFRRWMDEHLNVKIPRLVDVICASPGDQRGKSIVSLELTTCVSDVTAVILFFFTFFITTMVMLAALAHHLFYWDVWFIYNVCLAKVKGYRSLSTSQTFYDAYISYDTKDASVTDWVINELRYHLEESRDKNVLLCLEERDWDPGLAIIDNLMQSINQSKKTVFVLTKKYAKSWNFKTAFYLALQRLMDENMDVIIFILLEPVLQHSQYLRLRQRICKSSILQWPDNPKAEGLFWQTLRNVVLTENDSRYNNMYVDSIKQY
Outline: (§1)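 HEK-Blue cells expressing human TLR7, TLR8 or TLR9 with an NF-κB/AP-1-driven SEAP reporter were pretreated with compound (0.05 nM–50 μM final) for 30 min at room temperature. Agonists were gardiquimod 7.5 μM for TLR7, R848 15.9 μM for TLR8 and ODN2006 5 nM for TLR9. SEAP was read after 22 h at 37 °C, and inhibition was calculated relative to agonist-plus-DMSO and known-inhibitor controls.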

human TLR9 = molecular target: T2, human TLR9 (Homo sapiens, UniProt Q9NR96); assay: TLR9 inhibition reporter assay (HEK-Blue cells, secreted embryonic alkaline phosphatase reporter); settings: HEK-Blue cells overexpressing human TLR9, stimulated with ODN2006 5 nM
T2 construct: host or cells: HEK-Blue cells (HEK293-derived reporter line)
T2 sequence (Q9NR96 26-1032): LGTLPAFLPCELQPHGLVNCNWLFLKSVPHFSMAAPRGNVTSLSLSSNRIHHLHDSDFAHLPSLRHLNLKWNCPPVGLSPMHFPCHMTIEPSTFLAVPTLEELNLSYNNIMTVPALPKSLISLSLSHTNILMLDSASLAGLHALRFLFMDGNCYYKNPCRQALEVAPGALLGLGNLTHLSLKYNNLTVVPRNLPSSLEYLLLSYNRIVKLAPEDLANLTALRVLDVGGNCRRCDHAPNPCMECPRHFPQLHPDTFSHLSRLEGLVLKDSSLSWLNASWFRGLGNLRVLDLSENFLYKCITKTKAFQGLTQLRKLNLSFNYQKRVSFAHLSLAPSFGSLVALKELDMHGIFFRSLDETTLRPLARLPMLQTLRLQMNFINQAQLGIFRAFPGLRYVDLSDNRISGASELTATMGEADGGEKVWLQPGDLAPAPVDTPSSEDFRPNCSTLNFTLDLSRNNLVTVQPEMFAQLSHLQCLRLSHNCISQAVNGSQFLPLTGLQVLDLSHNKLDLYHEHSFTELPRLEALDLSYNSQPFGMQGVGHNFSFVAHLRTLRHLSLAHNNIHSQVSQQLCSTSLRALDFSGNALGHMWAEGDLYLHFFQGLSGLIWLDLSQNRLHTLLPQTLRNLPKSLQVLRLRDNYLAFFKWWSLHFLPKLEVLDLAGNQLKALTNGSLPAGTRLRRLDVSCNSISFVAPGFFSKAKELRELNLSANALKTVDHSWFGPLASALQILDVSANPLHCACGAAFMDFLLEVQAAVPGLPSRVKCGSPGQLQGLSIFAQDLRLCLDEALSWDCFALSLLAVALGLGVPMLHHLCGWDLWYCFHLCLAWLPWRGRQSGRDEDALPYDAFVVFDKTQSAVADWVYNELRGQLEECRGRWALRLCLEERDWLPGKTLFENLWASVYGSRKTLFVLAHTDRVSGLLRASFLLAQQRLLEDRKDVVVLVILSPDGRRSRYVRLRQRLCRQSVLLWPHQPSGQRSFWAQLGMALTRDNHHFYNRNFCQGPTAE
Outline: as §1

human TLR7 = molecular target: T3, human TLR7 (Homo sapiens, UniProt Q9NYK1); assay: TLR7 inhibition reporter assay (HEK-Blue cells, secreted embryonic alkaline phosphatase reporter); settings: HEK-Blue cells overexpressing human TLR7, stimulated with gardiquimod 7.5 μM; read-out: TLR 7 IC50
T3 construct: host or cells: HEK-Blue cells (HEK293-derived reporter line)
T3 sequence (Q9NYK1 27-1049): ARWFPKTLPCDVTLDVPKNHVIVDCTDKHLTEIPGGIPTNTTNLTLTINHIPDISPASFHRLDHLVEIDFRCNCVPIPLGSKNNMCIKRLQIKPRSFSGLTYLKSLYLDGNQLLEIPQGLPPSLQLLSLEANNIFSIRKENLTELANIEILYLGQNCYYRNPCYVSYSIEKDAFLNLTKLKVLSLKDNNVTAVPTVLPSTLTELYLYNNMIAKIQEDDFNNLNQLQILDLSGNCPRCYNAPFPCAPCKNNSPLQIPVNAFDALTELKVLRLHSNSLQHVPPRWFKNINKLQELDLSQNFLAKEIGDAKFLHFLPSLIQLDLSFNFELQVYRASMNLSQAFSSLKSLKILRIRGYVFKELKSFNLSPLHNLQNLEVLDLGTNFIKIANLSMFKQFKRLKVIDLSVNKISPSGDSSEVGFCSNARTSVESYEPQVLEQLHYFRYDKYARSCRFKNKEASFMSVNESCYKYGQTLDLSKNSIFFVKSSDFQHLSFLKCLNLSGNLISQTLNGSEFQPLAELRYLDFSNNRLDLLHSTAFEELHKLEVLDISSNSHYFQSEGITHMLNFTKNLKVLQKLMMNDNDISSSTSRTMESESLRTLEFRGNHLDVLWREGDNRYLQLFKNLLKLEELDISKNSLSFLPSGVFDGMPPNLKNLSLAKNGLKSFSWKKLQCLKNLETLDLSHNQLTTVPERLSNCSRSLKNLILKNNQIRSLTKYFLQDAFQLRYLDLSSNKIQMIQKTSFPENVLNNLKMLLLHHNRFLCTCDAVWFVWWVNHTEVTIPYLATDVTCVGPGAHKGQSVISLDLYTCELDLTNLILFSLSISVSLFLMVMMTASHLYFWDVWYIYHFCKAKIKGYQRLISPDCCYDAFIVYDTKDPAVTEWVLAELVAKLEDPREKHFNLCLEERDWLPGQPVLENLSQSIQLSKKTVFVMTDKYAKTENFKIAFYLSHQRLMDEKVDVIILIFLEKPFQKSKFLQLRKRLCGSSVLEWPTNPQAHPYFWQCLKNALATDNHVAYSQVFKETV
Outline: as §1

[1] = 22 hour incubation, reporter readout

| Compound | IC50 (human TLR8) | IC50 (human TLR9; [1]) | IC50 (human TLR7) | IC50 (human TLR9; read-out: TLR 9 IC50) |
| --- | --- | --- | --- | --- |
| CC(C)N1C2CCC1CC(N1CCC(c3ccc4nc(-c5ccc(S(C)(=O)=O)cc5)[nH]c4c3F)CC1)C2 (single isomer, unassigned) [Example 95, 7-fluoro-6-(1-(8-isopropyl-8-azabicyclo[3.2.1]octan-3-yl)piperidin-4-yl)-2-(4-(methylsulfonyl)phenyl)-1H-benzo[d]imidazole] | > 50 µM | 29 nM | > 50 µM |  |
| CC(C)N1C2CCC1CC(N1CCC(c3cc4c(cc3F)nc(-c3ccc(S(C)(=O)=O)cc3)n4C)CC1)C2 (single isomer, unassigned) [Example 97, 5-fluoro-6-(1-(8-isopropyl-8-azabicyclo[3.2.1]octan-3-yl)piperidin-4-yl)-1-methyl-2-(4-(methylsulfonyl)phenyl)-1H-benzo[d]imidazole] | > 50 µM | 79 nM | 47 µM |  |
| CC(C)N1C2CCC1CC(N1CCC(c3cc4c(cc3F)nc(-c3ccc(S(C)(=O)=O)cc3)n4C)CC1)C2 (single isomer, unassigned) [Example 98, 5-fluoro-6-(1-(8-isopropyl-8-azabicyclo[3.2.1]octan-3-yl)piperidin-4-yl)-1-methyl-2-(4-(methylsulfonyl)phenyl)-1H-benzo[d]imidazole] | > 50 µM | 10 nM | 23.8 µM |  |
| CC(C)N1C2CCC1CC(N1CCC(c3cc4nc(-c5ccc(S(C)(=O)=O)cc5)n(C)c4cc3F)CC1)C2 (single isomer, unassigned) [Example 100, 6-fluoro-5-(1-(8-isopropyl-8-azabicyclo[3.2.1]octan-3-yl)piperidin-4-yl)-1-methyl-2-(4-(methylsulfonyl)phenyl)-1H-benzo[d]imidazole] | > 50 µM | 62 nM | 39.9 µM |  |
| CC(C)N1C2CCC1CC(N1CCC(c3cc4nc(-c5ccc(S(C)(=O)=O)cc5)n(C)c4cc3F)CC1)C2 (single isomer, unassigned) [Example 101, 6-fluoro-5-(1-(8-isopropyl-8-azabicyclo[3.2.1]octan-3-yl)piperidin-4-yl)-1-methyl-2-(4-(methylsulfonyl)phenyl)-1H-benzo[d]imidazole] | > 50 µM | 75 nM | 19.5 µM |  |
| CC(C)N1C2CCC1CC(N1CCC(c3ccc4nc(-c5ccc(S(C)(=O)=O)cc5)n(C)c4c3F)CC1)C2 (single isomer, unassigned) [Example 103, 7-fluoro-6-(1-(8-isopropyl-8-azabicyclo[3.2.1]octan-3-yl)piperidin-4-yl)-1-methyl-2-(4-(methylsulfonyl)phenyl)-1H-benzo[d]imidazole] | > 50 µM | 54 nM | 25.9 µM |  |
| CC(C)N1C2CCC1CC(N1CCC(c3ccc4nc(-c5ccc(S(C)(=O)=O)cc5)n(C)c4c3F)CC1)C2 (single isomer, unassigned) [Example 104, 7-fluoro-6-(1-(8-isopropyl-8-azabicyclo[3.2.1]octan-3-yl)piperidin-4-yl)-1-methyl-2-(4-(methylsulfonyl)phenyl)-1H-benzo[d]imidazole] | > 50 µM | 140 nM | 39.2 µM |  |
| CC(C)N1C2CCC1CC(N1CCC(c3cc(F)c4nc(-c5ccc(S(C)(=O)=O)cc5)n(C)c4c3)CC1)C2 (single isomer, unassigned) [Example 106, 4-fluoro-6-(1-(8-isopropyl-8-azabicyclo[3.2.1]octan-3-yl)piperidin-4-yl)-1-methyl-2-(4-(methylsulfonyl)phenyl)-1H-benzo[d]imidazole] | > 50 µM | 390 nM | 35.1 µM | 387 nM |
| CC(C)N1C2CCC1CC(N1CCC(c3cc(F)c4nc(-c5ccc(S(C)(=O)=O)cc5)n(C)c4c3)CC1)C2 (single isomer, unassigned) [Example 107, 4-fluoro-6-(1-(8-isopropyl-8-azabicyclo[3.2.1]octan-3-yl)piperidin-4-yl)-1-methyl-2-(4-(methylsulfonyl)phenyl)-1H-benzo[d]imidazole] | > 50 µM | 270 nM | 5.8 µM | 269 nM |
| Cn1c(-c2ccc(S(C)(=O)=O)cc2)nc2c(F)cc(C3CCN(C4CCCN(C5COC5)CC4)CC3)cc21 (single isomer, unassigned) [Example 108, 4-fluoro-1-methyl-2-(4-(methylsulfonyl)phenyl)-6-(1-(1-(oxetan-3-yl)azepan-4-yl)piperidin-4-yl)-1H-benzo[d]imidazole] | > 50 µM | 260 nM | 24 µM | 25.8 nM |
| Cn1c(-c2ccc(S(C)(=O)=O)cc2)nc2c(F)cc(C3CCN(C4CCCN(C5COC5)CC4)CC3)cc21 (single isomer, unassigned) [Example 109, 4-fluoro-1-methyl-2-(4-(methylsulfonyl)phenyl)-6-(1-(1-(oxetan-3-yl)azepan-4-yl)piperidin-4-yl)-1H-benzo[d]imidazole] | > 50 µM | 90 nM | 17.2 µM |  |
